From patent US9427001B2, “Enhanced bioavailable iodine molecules” (ZINPRO CORPORATION, priority 2011, dated 2016)
Like-named read-outs stand apart in the source and are kept apart here.

Columns and labels:
[1] = nonlactating pregnant beef cows, bolus
[2] = nonlactating pregnant beef cows; 60 mg Iodine/day for 10 days

Row | Substance | Average Serum iodine level (day 2-day 14) ([1]; 60 mg Iodine/day for 10 days (day 0-day 10), average of day 2-14) | Serum iodine Day 10 (last treatment day) ([1]; 60 mg Iodine/day for 10 days, peak value at day 10) | Blood levels of iodine compared with CaIO3 or EDDI ([1]; 60 mg iodine day 0-day 10) | Average Serum iodine level (day 2-day 14) [2] | Serum iodine Day 10 (last treatment day) [2]
1 | Zinc Lysine Diiodide [Structure I] | 184 | 380 | higher blood levels of iodine than CaIO3 or EDDI | – | –
2 | Zinc Hydroxy-Methylthio-Butyric Acid Iodide [Example III] | – | – | – | 386 | 630
